Laboratory results: US20060069132A1, “Azolecarboxamide herbicides” (priority 2004, published 2006)

Experiments:
Test in all cases: Test E pre-/postemergence herbicide test
[1] = system: southern sandbur; format: in vivo, Cenchrus echinatus
Summary of the method: (§1)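 Ratings from 0 (no effect) to 100 (complete control) were assigned by visual comparison with untreated plants 12 to 14 days after application. Test chemicals, formulated with surfactant in a non-phytotoxic solvent blend, were applied to soil after planting or to foliage of 2–18 cm plants.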

[2] = system: goosegrass; format: in vivo, Eleusine indica
Summary of the method: as §1

[3] = system: common purslane; format: in vivo, Portulaca oleracea
Summary of the method: as §1

[4] = system: mustard; format: in vivo, Brassica nigra
Summary of the method: as §1

[5] = system: pitted morningglory; format: in vivo, Ipomoea lacunosa
Summary of the method: as §1

[6] = system: common mallow; format: in vivo, Malva sylvestris
Summary of the method: as §1

[7] = system: large crabgrass; format: in vivo, Digitaria sanguinalis
Summary of the method: as §1

[8] = system: green foxtail; format: in vivo, Setaria viridis
Summary of the method: as §1

[9] = system: Canada horseweed; format: in vivo, Erigeron Canadensis
Description: Seeds of plant species selected from bipinnate beggarticks (Bidens bipinnata L.), hairy beggarticks (Bidens radiata Thuill.), bermudagrass (Cynodon dactylon (L.) Pers.), Surinam grass (Urochloa decumbens (Staph) R. D. Webster, previously named Brachiaria decumbens Stapf), large crabgrass (Digitaria sanguinalis (L.) Scop.), green foxtail (Setaria viridis (L.) P. Beauv.), goosegrass (Eleusine indica (L.) Gaertn.), johnsongrass (Sorghum halepense (L.) Pers.), kochia (Kochia scoparia (L.) Schrad.), pitted morningglory (Ipomoea lacunosa L.), purple nutsedge (Cyperus rotundus L.), common ragweed (Ambrosia elatior L.), mustard (Brassica nigra (L.) W. D. J. Koch), guineagrass (Panicum maximum Jacq.), dallisgrass (Paspalum dilatatum Poir.), barnyardgrass (Echinochloa crus-galli (L). P. Beauv.), southern sandbur (Cenchrus echinatus L.), common sowthistle (Sonchus oleraceous L.), prickly sida (Sida spinosa L.), Italian ryegrass (Lolium multiflorum Lam.), common purslane (Portulaca oleracea L.), broadleaf signalgrass (Brachiaria platyphylla (Griseb.) Nash), common groundsel (Senecio vulgaris L.), common chickweed (Stellaria media (L.) Vill/Cyr.), tropical spiderwort (Commelina benghalensis L.), annual bluegrass (Poa annua L.), downy bromegrass (Bromus tectorum L.), itchgrass (Rottboellia cochinchinensis (L.) L.f.), quackgrass (Elytrigia repens (L.) Nevski), Canada horseweed (Erigeron Canadensis L.), field bindweed (Convolvulus arvensis L.), spotted spurge (Euphorbia maculata L.), common mallow (Malva sylvestris (=s silvestris) L.), and Russian thistle (Salsola kali L. ssp. Ruthenica (Iljin) Soo) were planted and treated preemergence with test chemicals formulated in a non-phytotoxic solvent mixture which included a surfactant.
At the same time, plants selected from these weed species were treated with postemergence applications of some of the test chemicals formulated in the same manner. Plants ranged in height from 2 to 18 cm (1- to 4-leaf stage) for postemergence treatments. Treated plants and controls were maintained in a greenhouse for 12 to 14 days, after which time all species were compared to controls and visually evaluated. Plant response ratings, summarized in Table E, are based on a scale of 0 to 100 where 0 is no effect and 100 is complete control. A dash (-) response means no test result.

[10] = system: common sowthistle; format: in vivo, Sonchus oleraceous
Summary of the method: as §1

[11] = system: annual bluegrass; format: in vivo, Poa annua
Summary of the method: as §1

[12] = system: barnyardgrass; format: in vivo, Echinochloa crus-galli
Summary of the method: as §1

[13] = system: downy bromegrass; format: in vivo, Bromus tectorum
Summary of the method: as §1

[14] = system: Italian ryegrass; format: in vivo, Lolium multiflorum
Summary of the method: as §1

[15] = system: tropical spiderwort; format: in vivo, Commelina benghalensis
Summary of the method: as §1

[16] = system: dallisgrass; format: in vivo, Paspalum dilatatum
Summary of the method: as §1

[17] = Postemergence, 500 g ai/ha, scale 0 to 100
[18] = Postemergence, 250 g ai/ha, scale 0 to 100
[19] = Preemergence, 62 g ai/ha, scale 0 to 100
[20] = Preemergence, 125 g ai/ha, scale 0 (no effect) to 100 (complete control)
[21] = Preemergence, 500 g ai/ha, scale 0 (no effect) to 100 (complete control)
[22] = postemergence, 125 g ai/ha, scale 0 to 100
[23] = postemergence, 62 g ai/ha, scale 0 to 100
[24] = Preemergence, 250 g ai/ha, scale 0 (no effect) to 100 (complete control)

CCn1nc(C(C)(C)C)cc1C(=O)Nc1cc(C(=O)N(C)C)ccc1F [Compound 6, N-[5-[(dimethylamino)carbonyl]-2-fluorophenyl]-3-(1,1-dimethylethyl)-1-ethyl-1H-pyrazole-5-carboxamide]
Plant response rating, Sandbur [1, 17]: 100 | Plant response rating, Sandbur [1, 18]: 100 | Plant response rating, Sandbur [1, 19]: 85 | Plant response rating, Sandbur [1, 20]: 100 | Plant response rating, Sandbur [1, 21]: 100 | Plant response rating, Sandbur [1, 22]: 95 | Plant response rating, Sandbur [1, 23]: 85 | Plant response rating, Goosegrass [2, 17]: 98 | Plant response rating, Goosegrass [2, 18]: 98 | Plant response rating, Goosegrass [2, 19]: 85 | Plant response rating, Goosegrass [2, 20]: 95 | Plant response rating, Goosegrass [2, 21]: 100 | Plant response rating, Goosegrass [2, 22]: 98 | Plant response rating, Goosegrass [2, 23]: 90 | Plant response rating, Purslane [3, 17]: 100 | Plant response rating, Purslane [3, 18]: 100 | Plant response rating, Purslane [3, 19]: 100 | Plant response rating, Purslane [3, 20]: 100 | Plant response rating, Purslane [3, 24]: 100 | Plant response rating, Purslane [3, 21]: 100 | Plant response rating, Purslane [3, 22]: 90 | Plant response rating, Purslane [3, 23]: 75 | Plant response rating, Black Mustard [4, 17]: 100 | Plant response rating, Black Mustard [4, 18]: 100 | Plant response rating, Black Mustard [4, 19]: 100 | Plant response rating, Black Mustard [4, 20]: 100 | Plant response rating, Black Mustard [4, 24]: 100 | Plant response rating, Black Mustard [4, 21]: 100 | Plant response rating, Black Mustard [4, 22]: 100 | Plant response rating, Black Mustard [4, 23]: 95 | Plant response rating, Morningglory [5, 17]: 80 | Plant response rating, Morningglory [5, 18]: 60 | Plant response rating, Morningglory [5, 19]: 20 | Plant response rating, Morningglory [5, 20]: 70 | Plant response rating, Morningglory [5, 21]: 100 | Plant response rating, Morningglory [5, 22]: 10 | Plant response rating, Morningglory [5, 23]: 0 | Plant response rating, Mallow [6, 17]: 100 | Plant response rating, Mallow [6, 18]: 100 | Plant response rating, Mallow [6, 19]: 70 | Plant response rating, Mallow [6, 20]: 100 | Plant response rating, Mallow [6, 21]: 100 | Plant response rating, Mallow [6, 22]: 95 | Plant response rating, Mallow [6, 23]: 65 | Plant response rating, Crabgrass, Large [7, 17]: 98 | Plant response rating, Crabgrass, Large [7, 18]: 98 | Plant response rating, Crabgrass, Large [7, 19]: 80 | Plant response rating, Crabgrass, Large [7, 20]: 90 | Plant response rating, Crabgrass, Large [7, 21]: 100 | Plant response rating, Crabgrass, Large [7, 22]: 90 | Plant response rating, Crabgrass, Large [7, 23]: 75 | Plant response rating, Foxtail, Green [8, 17]: 98 | Plant response rating, Foxtail, Green [8, 18]: 98 | Plant response rating, Foxtail, Green [8, 19]: 95 | Plant response rating, Foxtail, Green [8, 20]: 95 | Plant response rating, Foxtail, Green [8, 21]: 100 | Plant response rating, Foxtail, Green [8, 22]: 90 | Plant response rating, Foxtail, Green [8, 23]: 80 | Plant response rating, Horseweed [9, 17]: 100 | Plant response rating, Horseweed [9, 18]: 100 | Plant response rating, Horseweed [9, 19]: 100 | Plant response rating, Horseweed [9, 20]: 100 | Plant response rating, Horseweed [9, 24]: 100 | Plant response rating, Horseweed [9, 21]: 100 | Plant response rating, Horseweed [9, 22]: 100 | Plant response rating, Horseweed [9, 23]: 75 | Plant response rating, Sowthistle [10, 17]: 100 | Plant response rating, Sowthistle [10, 18]: 100 | Plant response rating, Sowthistle [10, 19]: 95 | Plant response rating, Sowthistle [10, 20]: 95 | Plant response rating, Sowthistle [10, 24]: 100 | Plant response rating, Sowthistle [10, 21]: 100 | Plant response rating, Sowthistle [10, 22]: 95 | Plant response rating, Sowthistle [10, 23]: 75 | Plant response rating, Bluegrass [11, 17]: 98 | Plant response rating, Bluegrass [11, 18]: 98 | Plant response rating, Bluegrass [11, 19]: 100 | Plant response rating, Bluegrass [11, 20]: 100 | Plant response rating, Bluegrass [11, 21]: 100 | Plant response rating, Bluegrass [11, 22]: 98 | Plant response rating, Bluegrass [11, 23]: 98 | Plant response rating, Barnyardgrass [12, 17]: 98 | Plant response rating, Barnyardgrass [12, 18]: 95 | Plant response rating, Barnyardgrass [12, 19]: 90 | Plant response rating, Barnyardgrass [12, 20]: 95 | Plant response rating, Barnyardgrass [12, 24]: 95 | Plant response rating, Barnyardgrass [12, 21]: 100 | Plant response rating, Barnyardgrass [12, 22]: 90 | Plant response rating, Barnyardgrass [12, 23]: 80 | Plant response rating, Bromegrass, Downy [13, 17]: 100 | Plant response rating, Bromegrass, Downy [13, 18]: 100 | Plant response rating, Bromegrass, Downy [13, 19]: 90 | Plant response rating, Bromegrass, Downy [13, 20]: 95 | Plant response rating, Bromegrass, Downy [13, 24]: 95 | Plant response rating, Bromegrass, Downy [13, 21]: 100 | Plant response rating, Bromegrass, Downy [13, 22]: 98 | Plant response rating, Bromegrass, Downy [13, 23]: 95 | Plant response rating, Ryegrass, Italian [14, 17]: 98 | Plant response rating, Ryegrass, Italian [14, 18]: 98 | Plant response rating, Ryegrass, Italian [14, 19]: 90 | Plant response rating, Ryegrass, Italian [14, 20]: 95 | Plant response rating, Ryegrass, Italian [14, 21]: 100 | Plant response rating, Ryegrass, Italian [14, 22]: 95 | Plant response rating, Ryegrass, Italian [14, 23]: 80 | Plant response rating, Spiderwort [15, 17]: 95 | Plant response rating, Spiderwort [15, 18]: 90 | Plant response rating, Spiderwort [15, 19]: 70 | Plant response rating, Spiderwort [15, 20]: 75 | Plant response rating, Spiderwort [15, 24]: 80 | Plant response rating, Spiderwort [15, 21]: 95 | Plant response rating, Spiderwort [15, 22]: 75 | Plant response rating, Spiderwort [15, 23]: 60 | Plant response rating, Dallisgrass [16, 17]: 90 | Plant response rating, Dallisgrass [16, 18]: 80 | Plant response rating, Dallisgrass [16, 19]: 90 | Plant response rating, Dallisgrass [16, 20]: 95 | Plant response rating, Dallisgrass [16, 24]: 95 | Plant response rating, Dallisgrass [16, 21]: 100 | Plant response rating, Dallisgrass [16, 22]: 75 | Plant response rating, Dallisgrass [16, 23]: 60
